One assay concerns the target PKCθ (Homo sapiens, UniProt Q04759). Kind of assay: PKCθ Scintiplate Assay. Conditions: average value when one or more samples were tested. The class given is biochemical. The protocol: This assay detects the phosphorylation of a biotinylated substrate by kinase utilizing radiolabeled ATP (ATP γ P33). The enzyme is either recombinant full length PKCθ (Panvera, P2996) or the purified recombinant active kinase domain of full length PKCθ (amino acids 362-706). The substrate in this assay is a biotinylated peptide with a sequence of biotin-[…]-CONH2. The assay buffer is composed of 100 mM Hepes, pH7.5, 2 mM MgCl2, 20 mM β-glycerophosphate and 0.008% TritonX 100. A reaction mixture of ATP, ATP γ P33 (PerkinElmer), DTT, lipid activator, and the enzyme is prepared in the assay buffer and added to a 96 well polypropylene plate. The compound (diluted in DMSO in a separate 96-well polypropylene plate) is added to the reaction mixture and incubated at room temperature. Following the incubation, the peptide substrate is added to the reaction mixture to initiate the enzymatic reaction. The reaction is terminated with the addition of a stop solution (10 mM EDTA, 0.2% TritonX100, and 100 mM NaHPO4) and transferred from the assay plate to a washed streptavidin-coated 96 well scintiplate (PerkinElmer). The scintiplate is incubated at room temperature, washed in PBS with 0.1% TritonX 100, and counted in the 1450 Microbeta Trilux (Wallac, Version 2.60). Counts are recorded for each well as corrected counts per minute (CCPM). The counts are considered corrected because they are adjusted according to a P33 normalization protocol, which corrects for efficiency and background differences between the instrument detectors (software version 4.40.01).

Assay [1] addresses T1, human PKCθ full length enzyme (Homo sapiens, UniProt Q04759).
T1 construct: human PKCθ full length enzyme (Panvera Catalog No. P2996); purchased Panvera P2996
Put plainly: PKCθ IMAP Assay. Conditions: average value when one or more samples were tested; ATP 6 uM, PKCθ 1 nM. Format: biochemical. The method in brief: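 IMAP fluorescence polarization after 20 min with binding beads measured phosphorylation of 100 nM 5FAM-peptide. Reactions held 1 nM full-length human PKCθ, 6 uM ATP, 5% DMSO and DTT-containing buffer, 25 min at room temperature. Compounds tested as 2:1 serial dilutions; controls lacked ATP or enzyme.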

SMILES strings stand for the structures. Counter-ions that a name gives are not always drawn. A value given as a limit tells only on which side of the number the result lay.

Sequence of PKCθ (Q04759 362-706 limits assumed): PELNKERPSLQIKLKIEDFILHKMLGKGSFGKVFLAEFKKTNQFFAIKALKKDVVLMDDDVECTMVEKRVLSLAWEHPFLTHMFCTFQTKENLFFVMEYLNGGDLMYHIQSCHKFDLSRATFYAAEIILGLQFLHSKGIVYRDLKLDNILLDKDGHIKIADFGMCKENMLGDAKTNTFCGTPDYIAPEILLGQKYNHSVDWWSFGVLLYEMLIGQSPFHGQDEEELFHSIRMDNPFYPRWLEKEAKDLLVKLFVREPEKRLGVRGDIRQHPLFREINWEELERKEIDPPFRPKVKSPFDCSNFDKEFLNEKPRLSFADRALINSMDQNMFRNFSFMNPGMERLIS
T1 sequence (Q04759 whole entry): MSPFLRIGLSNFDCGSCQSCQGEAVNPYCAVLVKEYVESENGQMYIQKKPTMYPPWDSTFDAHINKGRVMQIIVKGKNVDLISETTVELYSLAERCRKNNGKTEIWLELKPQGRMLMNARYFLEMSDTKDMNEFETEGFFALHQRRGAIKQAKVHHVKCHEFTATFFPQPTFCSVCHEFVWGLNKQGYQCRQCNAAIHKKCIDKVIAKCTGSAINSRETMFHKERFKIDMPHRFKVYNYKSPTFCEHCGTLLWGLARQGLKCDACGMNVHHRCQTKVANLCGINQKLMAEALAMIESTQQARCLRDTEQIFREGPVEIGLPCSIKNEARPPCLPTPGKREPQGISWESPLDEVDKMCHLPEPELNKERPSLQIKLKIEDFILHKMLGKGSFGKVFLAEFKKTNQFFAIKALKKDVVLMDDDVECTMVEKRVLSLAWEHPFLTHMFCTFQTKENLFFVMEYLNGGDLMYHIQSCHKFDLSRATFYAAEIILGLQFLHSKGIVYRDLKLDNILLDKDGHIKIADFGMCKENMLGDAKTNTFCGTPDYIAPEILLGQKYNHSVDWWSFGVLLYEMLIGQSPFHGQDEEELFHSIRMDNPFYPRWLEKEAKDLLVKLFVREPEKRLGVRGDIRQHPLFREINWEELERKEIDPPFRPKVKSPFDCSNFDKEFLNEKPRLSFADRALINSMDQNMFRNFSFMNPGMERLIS

Take `N#Cc1cnc2sc(-c3ccc(CNCCO)cc3)cc2c1Nc1ccc2[nH]ccc2c1` [Compound 106, 2-(4-{[(2-hydroxyethyl)amino]methyl}phenyl)-4-(1H-indol-5-ylamino)thieno[2,3-b]pyridine-5-carbonitrile]: the IC50 was found to be 80 nM against PKCθ and 140 nM in assay [1].
`N#Cc1cnc2sc(-c3ccccc3)cc2c1Nc1ccc2cc[nH]c2c1` [Compound 116, 4-(1H-indol-6-ylamino)-2-phenylthieno[2,3-b] pyridine-5-carbonitrile hydrochloride]: the IC50 against PKCθ was above 3300 nM; in assay [1], 5600 nM.
Taken in the same sequence, the figures for `Cc1c(Nc2c(C#N)cnc3sc(-c4ccccc4)cc23)ccc2[nH]ccc12` [Compound 117, 4-[(4-methyl-1H-indol-5-yl)amino]-2-phenylthieno[2,3-b]pyridine-5-carbonitrile] were 28 nM and 60 nM.
Taken in the same sequence, the figures for `Cc1cc2cc(Nc3c(C#N)cnc4sc(-c5ccccc5)cc34)ccc2[nH]1` [Compound 118, 4-[(2-methyl-1H-indol-5-yl)amino]-2-phenylthieno[2,3-b]pyridine-5-carbonitrile] were 2700 nM and 1900 nM.
Regarding `N#Cc1cnc2sc(-c3ccccc3)cc2c1NC(=O)c1ccc2[nH]ccc2c1` [Compound 129, N-(5-cyano-2-phenylthieno[2,3-b]pyridin-4-yl)-1H-indole-5-carboxamide], the results for the IC50 (against PKCθ; in assay [1]) were above 60000 nM and above 100000 nM, respectively.
Taken in the same sequence, the figures for `Cc1c[nH]c2ccc(Nc3c(C#N)cnc4sc(-c5ccccc5)cc34)cc12` [Compound 133, 4-[(3-methyl-1H-indol-5-yl)amino]-2-phenylthieno[2,3-b]pyridine-5-carbonitrile] were 800 nM and 1400 nM.
Taken in the same sequence, the figures for `CN(C)Cc1cccc(-c2cc3c(Nc4cccc5[nH]ccc45)c(C#N)cnc3s2)c1` [Compound 141, 2-{3-[(dimethylamino)methyl]phenyl}-4-(1H-indol-4-ylamino)thieno[2,3-b]pyridine-5-carbonitrile] were 41 nM and 40 nM.
Taken in the same sequence, the figures for `CN1CCN(Cc2ccccc2-c2cc3c(Nc4cccc5[nH]ccc45)c(C#N)cnc3s2)CC1` [Compound 143, 4-(1H-indol-4-ylamino)-2-{2-[(4-methylpiperazin-1-yl)methyl]phenyl}thieno[2,3-b]pyridine-5-carbonitrile] were 180 nM and 240 nM.
Take `CN(C)Cc1cccc(-c2cc3c(Nc4ccc5[nH]ccc5c4)c(C#N)cnc3s2)c1` [Compound 147, 2-{3-[(dimethylamino)methyl]phenyl}-4-(1H-indol-5-ylamino)thieno[2,3-b]pyridine-5-carbonitrile]: the IC50 at PKCθ amounted to 43 nM; in assay [1] it was 75 nM.
Taken in the same sequence, the figures for `N#Cc1cnc2sc(-c3cccc(CN4CCN(CCO)CC4)c3)cc2c1Nc1ccc2[nH]ccc2c1` [Compound 148, 2-(3-{[4-(2-hydroxyethyl)piperazin-1-yl]methyl}phenyl)-4-(1H-indol-5-ylamino)thieno[2,3-b]pyridine-5-carbonitrile] were 60 nM and 73 nM.
As to `N#Cc1cnc2sc(-c3cccc(CNCCO)c3)cc2c1Nc1ccc2[nH]ccc2c1` [Compound 149, 2-(3-{[(2-hydroxyethyl)amino]methyl}phenyl)-4-(1H-indol-5-ylamino)thieno[2,3-b]pyridine-5-carbonitrile], the IC50 is 13 nM on PKCθ and 30 nM in assay [1].
Taken in the same sequence, the figures for `N#Cc1cnc2sc(-c3cccc(CN4CCN(CCN5CCOCC5)CC4)c3)cc2c1Nc1ccc2[nH]ccc2c1` [Compound 150, 4-(1H-indol-5-ylamino)-2-(3-{[4-(2-morpholin-4-ylethyl)piperazin-1-yl]methyl}phenyl)thieno[2,3-b]pyridine-5-carbonitrile] were 41 nM and 160 nM.
Taken in the same sequence, the figures for `N#Cc1cnc2sc(-c3cccc(CN(CCO)CCO)c3)cc2c1Nc1ccc2[nH]ccc2c1` [Compound 151, 2-(3-{[bis(2-hydroxyethyl)amino]methyl}phenyl)-4-(1H-indol-5-ylamino)thieno[2,3-b]pyridine-5-carbonitrile] were 88 nM and 77 nM.
Taken in the same sequence, the figures for `N#Cc1cnc2sc(-c3ccccc3CN3CCC(O)CC3)cc2c1Nc1ccc2[nH]ccc2c1` [Compound 186, 2-{2-[(4-hydroxypiperidin-1-yl)methyl]phenyl}-4-(1H-indol-5-ylamino)thieno [2,3-b]pyridine-5-carbonitrile] were 290 nM and 1600 nM.
Consider `Cc1c(Nc2c(C#N)cnc3sc(-c4cccc(CN(C)C)c4)cc23)ccc2[nH]ccc12` [Compound 187, 2-{3-[(dimethylamino)methyl]phenyl}-4-[(4-methyl-1H-indol-5-yl)amino]thieno[2,3-b]pyridine-5-carbonitrile], for which the IC50 was 4.5 nM on PKCθ and 8 nM in assay [1].
Taken in the same sequence, the figures for `CN(C)Cc1ccc(-c2cc3c(Nc4ccc5[nH]ccc5c4)c(C#N)cnc3s2)nc1` [Compound 204, 2-{5-[(dimethylamino)methyl]pyridin-2-yl}-4-(1H-indol-5-ylamino)thieno[2,3-b] pyridine-5-carbonitrile] were 110 nM and 180 nM.
Taken in the same sequence, the figures for `CN(C)Cc1nc(-c2cc3c(Nc4ccc5[nH]ccc5c4)c(C#N)cnc3s2)cs1` [Compound 208, 2-{2-[(dimethylamino)methyl]-1,3-thiazol-4-yl}-4-(1H-indol-5-ylamino)thieno[2,3-b]pyridine-5-carbonitrile] were 50 nM and 100 nM.
Taken in the same sequence, the figures for `CN(C)C(=O)c1cccc(-c2cc3c(Nc4ccc5[nH]ccc5c4)c(C#N)cnc3s2)n1` [Compound 209, 6-[5-cyano-4-(1H-indol-5-ylamino)thieno[2,3-b]pyridin-2-yl]-N,N-dimethylpyridine-2-carboxamide] were 170 nM and 150 nM.
On to `CN(C)Cc1ccc(-c2cc3c(Nc4ccc5[nH]ccc5c4)c(C#N)cnc3s2)s1` [Compound 211, 2-{5-[(dimethylamino)methyl]-2-thienyl}-4-(1H-indol-5-ylamino)thieno[2,3-b]pyridine-5-carbonitrile], for which the IC50 against PKCθ came to 34 nM; in assay [1], 82 nM.
In the case of `N#Cc1cnc2sc(C#Cc3ccccn3)cc2c1Nc1ccc2[nH]ccc2c1` [Compound 213, 4-(1H-indol-5-ylamino)-2-(pyridine-2-ylethynyl)thieno[2,3-b]pyridine-5-carbonitrile], the IC50 against PKCθ was found to be 75 nM; in assay [1], 290 nM.
Taken in the same sequence, the figures for `N#Cc1cnc2sc(C#Cc3cccnc3)cc2c1Nc1ccc2[nH]ccc2c1` [Compound 214, 4-(1H-indol-5-ylamino)-2-(pyridin-3-ylethynyl)thieno[2,3-b]pyridine-5-carbonitrile] were 16 nM and 190 nM.
On to `N#Cc1cnc2sc(C#Cc3ccccc3)cc2c1Nc1ccc2[nH]ccc2c1` [Compound 215, 4-(1H-indol-5-ylamino)-2-(phenylethynyl)thieno[2,3-b]pyridine-5-carbonitrile], for which the IC50 against PKCθ turned out to be 500 nM.
As for `CN1CCN(Cc2cccc(C#Cc3cc4c(Nc5ccc6[nH]ccc6c5)c(C#N)cnc4s3)n2)CC1` [Compound 216, 4-(1H-indol-5-ylamino)-2-({6-[(4-methylpiperazin-1-yl)methyl]pyridin-2-yl}ethynyl)thieno[2,3-b]pyridine-5-carbonitrile], the IC50 against PKCθ was 90 nM; in assay [1] it was 320 nM.

As usually defined, the IC50 is the midpoint of a concentration-inhibition curve. Higher therefore signals lower potency.
